Results as given in PMC6407917, “Identification of GSK3186899/DDD853651 as a Preclinical Development Candidate for the Treatment of Visceral Leishmaniasis” (Journal of Medicinal Chemistry, 2018).

Assays:
Test in all cases: biochemical
Parameters in all cases: species or system HEK293/K-562/placenta mixed human extract; Kinobeads chemoproteomic competition binding, quantified by TMT LC-MS/MS, dose response up to 20 uM
AXL = AXL (Homo sapiens, UniProt P30530)
BMP2K = BMP2K (Homo sapiens, UniProt Q9NSY1)
BMPR1A = BMPR1A (Homo sapiens, UniProt P36894)
CDC42BPG = CDC42BPG (Homo sapiens, UniProt Q6DT37)
Chain of CDC42BPG (Q6DT37 whole entry): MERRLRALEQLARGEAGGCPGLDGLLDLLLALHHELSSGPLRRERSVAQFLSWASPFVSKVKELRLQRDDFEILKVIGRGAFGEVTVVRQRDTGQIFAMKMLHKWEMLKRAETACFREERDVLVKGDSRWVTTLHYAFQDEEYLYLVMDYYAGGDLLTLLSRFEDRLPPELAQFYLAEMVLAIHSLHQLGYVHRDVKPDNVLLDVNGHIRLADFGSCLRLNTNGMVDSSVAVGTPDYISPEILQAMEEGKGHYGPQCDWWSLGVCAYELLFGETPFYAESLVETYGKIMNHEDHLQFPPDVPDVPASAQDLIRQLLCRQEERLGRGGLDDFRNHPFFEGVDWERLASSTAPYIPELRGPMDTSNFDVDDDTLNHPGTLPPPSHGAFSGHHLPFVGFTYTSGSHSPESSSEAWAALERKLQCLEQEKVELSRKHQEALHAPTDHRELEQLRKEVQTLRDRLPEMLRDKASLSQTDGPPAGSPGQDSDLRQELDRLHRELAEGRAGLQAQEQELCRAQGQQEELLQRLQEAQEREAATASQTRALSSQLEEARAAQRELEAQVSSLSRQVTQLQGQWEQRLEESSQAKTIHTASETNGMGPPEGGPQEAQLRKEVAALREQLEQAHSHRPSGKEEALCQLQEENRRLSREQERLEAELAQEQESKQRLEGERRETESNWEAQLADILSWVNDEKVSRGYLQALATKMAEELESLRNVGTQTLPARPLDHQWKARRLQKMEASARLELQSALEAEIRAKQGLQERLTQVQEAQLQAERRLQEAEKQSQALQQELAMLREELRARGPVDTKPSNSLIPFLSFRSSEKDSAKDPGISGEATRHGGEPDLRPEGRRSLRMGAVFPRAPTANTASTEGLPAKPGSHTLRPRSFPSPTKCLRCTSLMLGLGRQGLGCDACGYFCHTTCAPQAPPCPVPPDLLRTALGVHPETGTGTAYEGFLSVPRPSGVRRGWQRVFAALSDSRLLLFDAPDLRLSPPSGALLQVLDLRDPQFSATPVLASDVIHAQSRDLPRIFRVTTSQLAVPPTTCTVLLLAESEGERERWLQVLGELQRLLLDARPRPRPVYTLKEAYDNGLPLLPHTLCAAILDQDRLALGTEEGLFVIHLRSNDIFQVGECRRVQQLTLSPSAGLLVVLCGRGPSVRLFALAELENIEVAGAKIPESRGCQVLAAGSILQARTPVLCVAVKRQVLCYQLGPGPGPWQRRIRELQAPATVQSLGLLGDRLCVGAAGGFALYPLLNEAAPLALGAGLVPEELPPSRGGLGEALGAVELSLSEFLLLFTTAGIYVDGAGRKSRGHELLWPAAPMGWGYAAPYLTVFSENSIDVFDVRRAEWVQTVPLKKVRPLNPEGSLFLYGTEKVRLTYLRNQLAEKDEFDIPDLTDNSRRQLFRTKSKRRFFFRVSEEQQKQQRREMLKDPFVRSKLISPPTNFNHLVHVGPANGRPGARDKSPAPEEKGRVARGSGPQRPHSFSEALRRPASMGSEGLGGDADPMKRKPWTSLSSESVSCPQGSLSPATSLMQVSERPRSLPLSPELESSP

CHEK1 = CHEK1 (Homo sapiens, UniProt O14757)
CSNK2A1 = CSNK2A1 (Homo sapiens, UniProt P68400)
EGFR = EGFR (Homo sapiens, UniProt P00533)
EPHA2 = EPHA2 (Homo sapiens, UniProt P29317)
EPHB1 = EPHB1 (Homo sapiens, UniProt P54762)
Chain of EPHB1 (P54762 whole entry): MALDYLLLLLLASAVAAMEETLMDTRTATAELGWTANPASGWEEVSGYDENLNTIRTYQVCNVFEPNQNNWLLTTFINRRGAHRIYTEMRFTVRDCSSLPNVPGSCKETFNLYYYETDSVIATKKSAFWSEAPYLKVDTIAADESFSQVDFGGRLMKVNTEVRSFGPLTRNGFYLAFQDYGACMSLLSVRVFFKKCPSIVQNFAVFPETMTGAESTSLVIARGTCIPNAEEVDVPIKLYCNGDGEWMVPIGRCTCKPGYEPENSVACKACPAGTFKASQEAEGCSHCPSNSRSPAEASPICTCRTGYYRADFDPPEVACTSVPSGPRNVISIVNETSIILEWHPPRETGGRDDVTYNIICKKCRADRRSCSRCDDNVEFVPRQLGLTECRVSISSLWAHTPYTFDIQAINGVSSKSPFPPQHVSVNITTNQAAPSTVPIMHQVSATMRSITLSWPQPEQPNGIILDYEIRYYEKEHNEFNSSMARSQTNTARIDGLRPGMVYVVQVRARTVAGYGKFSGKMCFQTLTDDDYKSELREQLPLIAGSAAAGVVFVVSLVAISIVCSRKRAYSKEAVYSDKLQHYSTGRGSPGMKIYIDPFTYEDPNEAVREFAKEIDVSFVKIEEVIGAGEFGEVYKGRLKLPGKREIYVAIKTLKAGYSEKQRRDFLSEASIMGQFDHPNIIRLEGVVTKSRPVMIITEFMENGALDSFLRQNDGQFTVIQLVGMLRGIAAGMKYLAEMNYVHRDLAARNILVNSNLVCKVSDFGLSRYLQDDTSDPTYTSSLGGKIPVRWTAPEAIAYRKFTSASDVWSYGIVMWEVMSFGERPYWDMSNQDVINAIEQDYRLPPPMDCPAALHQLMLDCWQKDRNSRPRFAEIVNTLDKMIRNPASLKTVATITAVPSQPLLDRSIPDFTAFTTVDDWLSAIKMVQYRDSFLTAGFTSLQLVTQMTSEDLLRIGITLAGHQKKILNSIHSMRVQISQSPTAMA

FN3K = FN3K (Homo sapiens, UniProt Q9H479)
Chain of FN3K (Q9H479 whole entry): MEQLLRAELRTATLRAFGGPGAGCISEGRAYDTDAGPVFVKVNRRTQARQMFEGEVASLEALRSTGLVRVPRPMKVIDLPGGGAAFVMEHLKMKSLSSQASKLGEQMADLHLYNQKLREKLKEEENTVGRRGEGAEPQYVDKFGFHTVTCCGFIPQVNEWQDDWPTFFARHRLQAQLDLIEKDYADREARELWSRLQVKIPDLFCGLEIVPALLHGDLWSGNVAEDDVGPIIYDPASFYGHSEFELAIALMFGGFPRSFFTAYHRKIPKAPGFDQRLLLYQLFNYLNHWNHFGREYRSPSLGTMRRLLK

IKBKG = IKBKG (Homo sapiens, UniProt Q9Y6K9)
IRAK4 = IRAK4 (Homo sapiens, UniProt Q9NWZ3)
JAK1 = JAK1 (Homo sapiens, UniProt P23458)
Chain of JAK1 (P23458 whole entry): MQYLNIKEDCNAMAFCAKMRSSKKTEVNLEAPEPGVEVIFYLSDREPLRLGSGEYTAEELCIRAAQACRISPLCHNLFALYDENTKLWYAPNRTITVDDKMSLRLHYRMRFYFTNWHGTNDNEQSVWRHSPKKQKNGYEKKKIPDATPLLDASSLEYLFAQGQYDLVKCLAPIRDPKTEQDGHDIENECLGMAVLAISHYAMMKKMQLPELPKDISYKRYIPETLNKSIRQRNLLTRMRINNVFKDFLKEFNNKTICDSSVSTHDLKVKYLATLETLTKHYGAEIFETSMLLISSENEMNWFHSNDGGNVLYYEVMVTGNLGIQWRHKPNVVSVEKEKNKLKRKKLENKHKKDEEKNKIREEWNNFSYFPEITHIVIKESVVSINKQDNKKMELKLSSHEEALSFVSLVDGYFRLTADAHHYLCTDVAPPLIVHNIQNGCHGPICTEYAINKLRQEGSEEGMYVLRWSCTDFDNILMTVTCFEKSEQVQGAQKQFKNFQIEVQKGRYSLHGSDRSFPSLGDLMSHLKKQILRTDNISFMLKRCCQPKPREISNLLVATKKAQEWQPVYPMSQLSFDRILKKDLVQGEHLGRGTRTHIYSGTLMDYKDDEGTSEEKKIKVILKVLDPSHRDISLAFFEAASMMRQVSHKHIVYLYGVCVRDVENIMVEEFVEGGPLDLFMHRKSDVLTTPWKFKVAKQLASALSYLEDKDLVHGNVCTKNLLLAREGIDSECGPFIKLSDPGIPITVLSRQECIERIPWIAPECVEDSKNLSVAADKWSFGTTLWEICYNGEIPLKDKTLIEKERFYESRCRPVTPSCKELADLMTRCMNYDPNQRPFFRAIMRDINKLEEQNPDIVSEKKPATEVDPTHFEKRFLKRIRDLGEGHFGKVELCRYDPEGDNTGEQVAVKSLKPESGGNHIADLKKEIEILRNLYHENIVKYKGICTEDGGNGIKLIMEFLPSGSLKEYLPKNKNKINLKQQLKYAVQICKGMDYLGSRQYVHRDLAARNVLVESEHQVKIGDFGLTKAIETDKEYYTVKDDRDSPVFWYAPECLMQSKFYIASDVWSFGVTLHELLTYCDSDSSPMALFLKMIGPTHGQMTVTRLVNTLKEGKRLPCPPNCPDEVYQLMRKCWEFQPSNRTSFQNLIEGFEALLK

MAP2K2 = MAP2K2 (Homo sapiens, UniProt P36507)
Chain of MAP2K2 (P36507 whole entry): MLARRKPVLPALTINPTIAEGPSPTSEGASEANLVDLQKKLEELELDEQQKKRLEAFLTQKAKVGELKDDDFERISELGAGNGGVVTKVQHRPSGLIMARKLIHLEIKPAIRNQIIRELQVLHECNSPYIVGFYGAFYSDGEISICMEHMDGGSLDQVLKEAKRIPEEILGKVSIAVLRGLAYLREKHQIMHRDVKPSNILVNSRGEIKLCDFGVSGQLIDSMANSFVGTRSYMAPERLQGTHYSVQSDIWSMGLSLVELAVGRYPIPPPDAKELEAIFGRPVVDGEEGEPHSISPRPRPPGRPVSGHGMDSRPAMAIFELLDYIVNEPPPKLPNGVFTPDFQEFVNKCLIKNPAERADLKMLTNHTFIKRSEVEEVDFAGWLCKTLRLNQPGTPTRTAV

NEK2 = NEK2 (Homo sapiens, UniProt P51955)
Chain of NEK2 (P51955 whole entry): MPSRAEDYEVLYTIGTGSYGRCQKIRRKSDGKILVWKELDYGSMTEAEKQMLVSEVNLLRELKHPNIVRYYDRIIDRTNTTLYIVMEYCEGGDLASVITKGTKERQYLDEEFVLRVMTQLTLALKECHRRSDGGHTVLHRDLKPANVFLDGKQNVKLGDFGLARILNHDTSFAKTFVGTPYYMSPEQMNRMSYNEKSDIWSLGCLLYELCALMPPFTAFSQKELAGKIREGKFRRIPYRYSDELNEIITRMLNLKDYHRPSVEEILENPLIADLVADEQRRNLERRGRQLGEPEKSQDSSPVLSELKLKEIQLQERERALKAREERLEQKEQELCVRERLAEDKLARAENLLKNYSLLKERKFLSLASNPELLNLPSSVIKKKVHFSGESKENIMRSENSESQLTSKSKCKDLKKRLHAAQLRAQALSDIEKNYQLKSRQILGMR

PDIK1L = PDIK1L (Homo sapiens, UniProt Q8N165)
PRKAA1 = PRKAA1 (Homo sapiens, UniProt Q13131)
PRKD2 = PRKD2 (Homo sapiens, UniProt Q9BZL6)
PTK2 = PTK2 (Homo sapiens, UniProt Q05397)
RPS6KA1 = RPS6KA1 (Homo sapiens, UniProt Q15418)
TYK2 = TYK2 (Homo sapiens, UniProt P29597)

Measured: IC50

COc1nc(N[C@H]2CC[C@H](NS(=O)(=O)CC(C)C)CC2)nc2[nH]nc(N3CCOC[C@H]3C)c12 [compound 39, N-(trans-4-((4-Methoxy-3-((R)-3-methylmorpholino)-1H-pyrazolo[3,4-d]pyrimidin-6-yl)amino)cyclohexyl)-2-methylpropane-1-sulfonamide]
≥ 20 µM: all assays above
